Key:
Test in all cases: β-arrestin based GPCR screen (PathHunter / GPCRmax), agonist mode
Format in all cases: cell-based
Set-up in all cases: host or cells: PathHunter cell lines
168 GPCRs [1] = molecular target: 168 GPCRs (Homo sapiens, UniProt O43193); conditions: MLNR
Method: (§1) For agonist determination, cells were incubated with sample to induce response. […] Vehicle concentration was 1%.

168 GPCRs [2] = molecular target: 168 GPCRs (Homo sapiens, UniProt O43603)
Method: as §1

168 GPCRs [3] = molecular target: 168 GPCRs (Homo sapiens, UniProt P21452)
Method: as §1

168 GPCRs [4] = molecular target: 168 GPCRs (Homo sapiens, UniProt P21730); conditions: C5AR1, Agonist
Method: as §1

168 GPCRs [5] = molecular target: 168 GPCRs (Homo sapiens, UniProt P25024)
Method: as §1

168 GPCRs [6] = molecular target: 168 GPCRs (Homo sapiens, UniProt P28566); conditions: HTR1E
Method: as §1

168 GPCRs [7] = molecular target: 168 GPCRs (Homo sapiens, UniProt P30556); conditions: AGTR1, Agonist
Method: as §1

168 GPCRs [8] = molecular target: 168 GPCRs (Homo sapiens, UniProt P30872)
Method: as §1

168 GPCRs [9] = molecular target: 168 GPCRs (Homo sapiens, UniProt P30989)
Method: as §1

168 GPCRs [10] = molecular target: T1, 168 GPCRs (Homo sapiens, UniProt P32247); conditions: BRS3, Agonist
T1 sequence (P32247 1-399): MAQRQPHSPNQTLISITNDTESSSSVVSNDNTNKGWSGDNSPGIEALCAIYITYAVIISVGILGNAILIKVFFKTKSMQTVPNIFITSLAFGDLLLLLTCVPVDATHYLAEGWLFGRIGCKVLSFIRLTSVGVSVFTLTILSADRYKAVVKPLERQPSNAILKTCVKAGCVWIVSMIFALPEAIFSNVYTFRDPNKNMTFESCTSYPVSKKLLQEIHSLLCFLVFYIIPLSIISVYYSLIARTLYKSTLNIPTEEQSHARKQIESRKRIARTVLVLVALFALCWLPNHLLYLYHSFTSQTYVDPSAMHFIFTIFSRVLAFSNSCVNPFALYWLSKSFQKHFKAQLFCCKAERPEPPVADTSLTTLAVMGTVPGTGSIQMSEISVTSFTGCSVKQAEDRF
Method: as §1

168 GPCRs [11] = molecular target: 168 GPCRs (Homo sapiens, UniProt P35372)
Method: as §1

168 GPCRs [12] = molecular target: 168 GPCRs (Homo sapiens, UniProt P37288); conditions: AVPR1A, Agonist
Method: as §1

168 GPCRs [13] = molecular target: 168 GPCRs (Homo sapiens, UniProt P43115)
Method: as §1

168 GPCRs [14] = molecular target: 168 GPCRs (Homo sapiens, UniProt P46092); conditions: CCR10, Agonist
Method: as §1

168 GPCRs [15] = molecular target: 168 GPCRs (Homo sapiens, UniProt P51684); conditions: CCR6, Agonist
Method: as §1

168 GPCRs [16] = molecular target: 168 GPCRs (Homo sapiens, UniProt P51685); conditions: CCR8, Agonist
Method: as §1

168 GPCRs [17] = molecular target: 168 GPCRs (Homo sapiens, UniProt Q15077)
Method: as §1

168 GPCRs [18] = molecular target: T2, 168 GPCRs (Homo sapiens, UniProt Q96RI0)
T2 sequence (Q96RI0 18-385): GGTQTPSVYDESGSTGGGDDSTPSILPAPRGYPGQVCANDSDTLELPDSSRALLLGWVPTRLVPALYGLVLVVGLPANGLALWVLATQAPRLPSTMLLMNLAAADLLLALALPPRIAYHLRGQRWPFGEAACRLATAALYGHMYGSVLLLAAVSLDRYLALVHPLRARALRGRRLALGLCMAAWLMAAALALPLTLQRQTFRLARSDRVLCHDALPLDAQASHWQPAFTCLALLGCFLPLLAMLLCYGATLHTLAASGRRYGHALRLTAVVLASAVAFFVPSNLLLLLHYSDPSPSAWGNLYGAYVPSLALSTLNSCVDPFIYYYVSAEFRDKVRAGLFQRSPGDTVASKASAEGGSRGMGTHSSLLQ
Method: as §1

Chain of 168 GPCRs (Homo sapiens, UniProt Q15077) (Q15077 whole entry): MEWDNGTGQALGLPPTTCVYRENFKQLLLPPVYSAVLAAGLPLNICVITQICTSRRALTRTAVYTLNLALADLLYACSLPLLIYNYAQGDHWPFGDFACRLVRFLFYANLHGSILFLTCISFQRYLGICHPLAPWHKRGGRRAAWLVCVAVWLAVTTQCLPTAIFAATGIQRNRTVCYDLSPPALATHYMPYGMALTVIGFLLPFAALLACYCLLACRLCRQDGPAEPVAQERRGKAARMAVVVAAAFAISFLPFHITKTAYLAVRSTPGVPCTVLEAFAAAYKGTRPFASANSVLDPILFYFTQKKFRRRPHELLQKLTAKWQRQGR
Chain of 168 GPCRs (Homo sapiens, UniProt P25024) (P25024 whole entry): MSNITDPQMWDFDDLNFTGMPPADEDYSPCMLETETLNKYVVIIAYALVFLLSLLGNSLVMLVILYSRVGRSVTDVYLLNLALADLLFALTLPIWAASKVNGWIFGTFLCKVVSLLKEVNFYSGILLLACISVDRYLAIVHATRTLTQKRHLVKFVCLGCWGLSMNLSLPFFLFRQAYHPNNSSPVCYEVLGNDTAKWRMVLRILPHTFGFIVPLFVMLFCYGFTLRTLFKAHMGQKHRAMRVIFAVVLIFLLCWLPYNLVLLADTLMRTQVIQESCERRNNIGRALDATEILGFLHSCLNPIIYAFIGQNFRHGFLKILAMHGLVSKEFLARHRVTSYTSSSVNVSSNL
Chain of 168 GPCRs (Homo sapiens, UniProt P35372) (P35372 whole entry): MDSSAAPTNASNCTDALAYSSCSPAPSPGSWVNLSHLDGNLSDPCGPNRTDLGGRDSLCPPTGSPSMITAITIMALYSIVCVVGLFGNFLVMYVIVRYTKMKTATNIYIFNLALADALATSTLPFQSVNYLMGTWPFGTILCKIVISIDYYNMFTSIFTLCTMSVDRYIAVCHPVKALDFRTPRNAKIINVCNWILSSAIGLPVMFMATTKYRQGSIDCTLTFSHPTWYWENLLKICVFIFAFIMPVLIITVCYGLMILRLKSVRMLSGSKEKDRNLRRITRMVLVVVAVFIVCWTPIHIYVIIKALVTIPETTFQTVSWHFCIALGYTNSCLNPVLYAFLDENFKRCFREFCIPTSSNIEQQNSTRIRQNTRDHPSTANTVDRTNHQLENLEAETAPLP
Chain of 168 GPCRs (Homo sapiens, UniProt P30872) (P30872 whole entry): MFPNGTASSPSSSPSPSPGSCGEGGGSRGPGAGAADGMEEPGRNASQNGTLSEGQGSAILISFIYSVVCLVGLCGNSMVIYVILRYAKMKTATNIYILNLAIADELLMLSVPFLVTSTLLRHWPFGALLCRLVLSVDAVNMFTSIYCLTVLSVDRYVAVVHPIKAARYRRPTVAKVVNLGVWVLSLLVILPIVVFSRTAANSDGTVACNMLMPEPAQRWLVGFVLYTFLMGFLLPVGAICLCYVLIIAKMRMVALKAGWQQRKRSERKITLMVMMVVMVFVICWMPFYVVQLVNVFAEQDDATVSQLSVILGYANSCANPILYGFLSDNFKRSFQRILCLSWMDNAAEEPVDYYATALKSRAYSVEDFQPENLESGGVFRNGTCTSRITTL
Chain of 168 GPCRs (Homo sapiens, UniProt P30556) (P30556 whole entry): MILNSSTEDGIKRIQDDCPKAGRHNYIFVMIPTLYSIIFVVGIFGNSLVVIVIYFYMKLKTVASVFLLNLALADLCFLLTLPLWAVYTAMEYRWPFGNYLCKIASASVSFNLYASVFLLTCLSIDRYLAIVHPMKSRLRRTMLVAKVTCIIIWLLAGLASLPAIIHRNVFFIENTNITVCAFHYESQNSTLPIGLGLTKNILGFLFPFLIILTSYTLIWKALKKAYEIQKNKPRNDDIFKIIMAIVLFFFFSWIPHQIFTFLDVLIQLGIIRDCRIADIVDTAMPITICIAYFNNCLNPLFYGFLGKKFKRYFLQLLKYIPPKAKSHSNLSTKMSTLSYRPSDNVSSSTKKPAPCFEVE
Chain of 168 GPCRs (Homo sapiens, UniProt P30989) (P30989 whole entry): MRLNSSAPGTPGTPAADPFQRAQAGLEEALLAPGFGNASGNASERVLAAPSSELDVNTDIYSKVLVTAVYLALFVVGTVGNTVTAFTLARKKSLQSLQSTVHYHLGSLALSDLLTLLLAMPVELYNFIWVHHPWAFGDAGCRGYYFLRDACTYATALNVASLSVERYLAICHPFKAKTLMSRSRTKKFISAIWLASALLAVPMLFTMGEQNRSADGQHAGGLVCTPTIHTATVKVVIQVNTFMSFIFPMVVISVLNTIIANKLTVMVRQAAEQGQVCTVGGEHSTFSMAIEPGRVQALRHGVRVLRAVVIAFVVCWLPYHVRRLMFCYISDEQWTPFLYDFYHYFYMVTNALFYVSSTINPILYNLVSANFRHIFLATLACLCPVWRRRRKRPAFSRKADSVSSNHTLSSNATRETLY
Chain of 168 GPCRs (Homo sapiens, UniProt P46092) (P46092 whole entry): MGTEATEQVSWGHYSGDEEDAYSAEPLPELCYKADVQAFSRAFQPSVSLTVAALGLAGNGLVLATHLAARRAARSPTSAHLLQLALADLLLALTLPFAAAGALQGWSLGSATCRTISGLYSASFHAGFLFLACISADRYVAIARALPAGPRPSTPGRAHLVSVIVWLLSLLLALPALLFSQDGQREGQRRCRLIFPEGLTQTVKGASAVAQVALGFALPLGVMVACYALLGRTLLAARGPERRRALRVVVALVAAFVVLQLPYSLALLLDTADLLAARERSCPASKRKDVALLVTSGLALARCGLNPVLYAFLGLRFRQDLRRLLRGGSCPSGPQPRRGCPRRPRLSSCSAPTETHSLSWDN
Chain of 168 GPCRs (Homo sapiens, UniProt P43115) (P43115 whole entry): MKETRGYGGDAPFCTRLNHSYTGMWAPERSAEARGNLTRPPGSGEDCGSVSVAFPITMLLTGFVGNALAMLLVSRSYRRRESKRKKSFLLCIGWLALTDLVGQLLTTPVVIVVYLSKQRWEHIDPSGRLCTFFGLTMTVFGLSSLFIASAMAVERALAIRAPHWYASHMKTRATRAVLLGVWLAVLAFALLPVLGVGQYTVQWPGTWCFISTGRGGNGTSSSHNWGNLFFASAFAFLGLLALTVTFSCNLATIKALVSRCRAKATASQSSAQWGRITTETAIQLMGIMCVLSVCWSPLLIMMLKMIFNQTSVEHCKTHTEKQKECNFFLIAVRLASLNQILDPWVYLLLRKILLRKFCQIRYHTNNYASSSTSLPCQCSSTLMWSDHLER
Chain of 168 GPCRs (Homo sapiens, UniProt P51685) (P51685 whole entry): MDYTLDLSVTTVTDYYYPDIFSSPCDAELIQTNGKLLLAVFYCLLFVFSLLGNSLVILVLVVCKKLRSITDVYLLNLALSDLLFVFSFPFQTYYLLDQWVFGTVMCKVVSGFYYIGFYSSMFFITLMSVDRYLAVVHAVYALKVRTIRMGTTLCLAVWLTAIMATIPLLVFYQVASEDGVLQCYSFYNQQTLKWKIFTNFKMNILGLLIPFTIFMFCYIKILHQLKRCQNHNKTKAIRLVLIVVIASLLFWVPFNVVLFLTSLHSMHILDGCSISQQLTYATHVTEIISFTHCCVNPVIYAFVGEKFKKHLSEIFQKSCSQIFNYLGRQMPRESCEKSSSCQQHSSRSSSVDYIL
Chain of 168 GPCRs (Homo sapiens, UniProt O43193) (O43193 whole entry): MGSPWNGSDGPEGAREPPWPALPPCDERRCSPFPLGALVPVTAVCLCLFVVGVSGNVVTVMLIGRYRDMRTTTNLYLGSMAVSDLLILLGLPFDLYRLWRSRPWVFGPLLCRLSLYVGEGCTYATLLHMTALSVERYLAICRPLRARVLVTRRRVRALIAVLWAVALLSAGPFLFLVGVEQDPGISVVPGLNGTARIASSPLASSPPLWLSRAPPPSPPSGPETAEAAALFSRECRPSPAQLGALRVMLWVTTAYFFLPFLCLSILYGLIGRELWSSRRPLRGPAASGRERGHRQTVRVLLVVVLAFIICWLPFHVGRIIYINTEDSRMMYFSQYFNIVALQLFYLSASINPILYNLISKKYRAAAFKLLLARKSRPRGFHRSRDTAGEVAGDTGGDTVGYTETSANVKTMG
Chain of 168 GPCRs (Homo sapiens, UniProt P21730) (P21730 whole entry): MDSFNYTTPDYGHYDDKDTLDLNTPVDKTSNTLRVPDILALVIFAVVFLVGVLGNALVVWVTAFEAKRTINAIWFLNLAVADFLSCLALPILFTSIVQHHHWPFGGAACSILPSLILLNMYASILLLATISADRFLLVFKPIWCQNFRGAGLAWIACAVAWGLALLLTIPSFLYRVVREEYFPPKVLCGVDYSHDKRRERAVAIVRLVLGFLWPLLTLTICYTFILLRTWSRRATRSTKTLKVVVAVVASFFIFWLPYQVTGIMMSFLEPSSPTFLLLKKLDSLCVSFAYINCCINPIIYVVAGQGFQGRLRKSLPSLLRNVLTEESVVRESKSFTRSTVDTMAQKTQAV
Chain of 168 GPCRs (Homo sapiens, UniProt P37288) (P37288 whole entry): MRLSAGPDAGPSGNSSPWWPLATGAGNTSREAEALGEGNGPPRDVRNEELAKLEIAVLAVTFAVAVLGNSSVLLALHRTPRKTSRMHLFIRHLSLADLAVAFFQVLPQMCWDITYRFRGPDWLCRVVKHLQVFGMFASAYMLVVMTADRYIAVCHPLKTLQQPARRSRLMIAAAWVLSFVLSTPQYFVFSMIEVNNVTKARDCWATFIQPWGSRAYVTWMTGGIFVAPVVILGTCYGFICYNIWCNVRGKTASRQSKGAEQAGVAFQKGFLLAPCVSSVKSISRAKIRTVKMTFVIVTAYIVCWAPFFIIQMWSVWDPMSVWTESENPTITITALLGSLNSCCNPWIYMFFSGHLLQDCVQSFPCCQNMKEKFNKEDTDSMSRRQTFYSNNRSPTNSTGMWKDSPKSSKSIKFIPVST
Chain of 168 GPCRs (Homo sapiens, UniProt P28566) (P28566 whole entry): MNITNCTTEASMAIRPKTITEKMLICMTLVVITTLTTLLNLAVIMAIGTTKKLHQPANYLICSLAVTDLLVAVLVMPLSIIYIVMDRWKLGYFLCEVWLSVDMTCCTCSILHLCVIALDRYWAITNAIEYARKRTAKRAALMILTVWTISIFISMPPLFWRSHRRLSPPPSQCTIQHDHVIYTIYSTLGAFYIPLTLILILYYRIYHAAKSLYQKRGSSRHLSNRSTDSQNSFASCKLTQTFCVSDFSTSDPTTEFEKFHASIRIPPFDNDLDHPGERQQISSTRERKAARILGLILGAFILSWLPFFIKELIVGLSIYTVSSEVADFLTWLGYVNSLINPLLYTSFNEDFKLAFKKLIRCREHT

In the case of `CNC(C)C(=O)c1ccc2c(c1)OCO2` (stereo not drawn) [methylone, 3,4-methylenedioxy-N-methylcathinone], the activity at 10 µM (168 GPCRs [1]; Agonist mode, 10 uM) is reported as -1%, the activity at 1 µM (168 GPCRs [1]; Agonist, 1 uM) is reported as -1.5% and the activity at 10 µM (168 GPCRs [2]; GALR2, Agonist mode, 10 uM) is reported as 1.9%. The activity at 1 µM (168 GPCRs [2]; GALR2, Agonist, 1 uM) was 3.4%, the activity at 10 µM (168 GPCRs [3]; TACR2, Agonist mode, 10 uM) was -3.3% and the activity at 1 µM (168 GPCRs [3]; TACR2, Agonist, 1 uM) was -1.9%. For the same compound, the activity at 1 µM (168 GPCRs [4]; 1 uM) was -1%, the activity at 10 µM (168 GPCRs [4]; 10 uM) was -1.3% and the activity at 10 µM (168 GPCRs [5]; CXCR1, Agonist mode, 10 uM) was 0.1%. It also gave an activity at 1 µM (168 GPCRs [5]; CXCR1, Agonist, 1 uM) of -0.5%, an activity at 10 µM (168 GPCRs [6]; Agonist mode, 10 uM) of 0.2% and an activity at 1 µM (168 GPCRs [6]; Agonist, 1 uM) of -3.5%. For the same compound, the activity at 1 µM (168 GPCRs [7]; 1 uM) was -2.8%, the activity at 10 µM (168 GPCRs [7]; 10 uM) was -1% and the activity at 10 µM (168 GPCRs [8]; SSTR1, Agonist mode, 10 uM) was -7.4%. It also gave an activity at 1 µM (168 GPCRs [8]; SSTR1, Agonist, 1 uM) of -5.3%, an activity at 10 µM (168 GPCRs [9]; NTSR1, Agonist mode, 10 uM) of -3.5% and an activity at 1 µM (168 GPCRs [9]; NTSR1, Agonist, 1 uM) of -4.7%. It also gave an activity at 1 µM (168 GPCRs [10]; 1 uM) of 4.5%, an activity at 10 µM (168 GPCRs [10]; 10 uM) of -4.6% and an activity at 10 µM (168 GPCRs [11]; OPRM1, OPRM1, Agonist mode, 10 uM) of 0.5%. The activity at 1 µM (168 GPCRs [11]; OPRM1, OPRM1, Agonist, 1 uM) was 0.2%, the activity at 1 µM (168 GPCRs [12]; 1 uM) was -0.6% and the activity at 10 µM (168 GPCRs [12]; 10 uM) was -0.5%. For the same compound, the activity at 10 µM (168 GPCRs [13]; PTGER3, Agonist mode, 10 uM) was 1.9%, the activity at 1 µM (168 GPCRs [13]; PTGER3, Agonist, 1 uM) was 4.5% and the activity at 1 µM (168 GPCRs [14]; 1 uM) was -2%. The activity at 10 µM (168 GPCRs [14]; 10 uM) was -1.8%, the activity at 1 µM (168 GPCRs [15]; 1 uM) was -2.9% and the activity at 10 µM (168 GPCRs [15]; 10 uM) was -3.3%. The activity at 1 µM (168 GPCRs [16]; 1 uM) was -0.2%, the activity at 10 µM (168 GPCRs [16]; 10 uM) was -0.6% and the activity at 10 µM (168 GPCRs [17]; P2RY6, Agonist mode, 10 uM) was 2.4%. It also gave an activity at 1 µM (168 GPCRs [17]; P2RY6, Agonist, 1 uM) of 4.5%, an activity at 10 µM (168 GPCRs [18]; F2RL3, Agonist mode, 10 uM) of 7% and an activity at 1 µM (168 GPCRs [18]; F2RL3, Agonist, 1 uM) of 4.3%.
